Square brackets hold non-standard residues; d marks the D form. Peptide text beside a SMILES is read from it. * marks the point of attachment. X1 = NC(=O)CC[C@@H]1NC(=O)CC/C=C/CN(CCC(=O)*)C(=O)[C@H](CCC(=O)O)NC1=O; β3hL = CC(C)C[C@H](N)CC(=O)O
Tests used:
[1] = Amide hydrogen-deuterium exchange; format: physicochemical; conditions: for H/D rate constant: D2O/TFE-d3 80/20, 20 °C, NMR, in duplicate; for Stabilization, −ΔG (free energy of protection): from H/D exchange, 20 °C
[2] = format: physicochemical; conditions: 10% TFE in PBS, 25 °C, 100 μM peptide, pH 7.4
[3] = Thermal denaturation monitored by CD / Zimm–Bragg model; format: physicochemical; conditions: from broad thermal transition, CD in 10% TFE/PBS, Zimm–Bragg simulation
[4] = target: N-terminal His6-tagged MDM2 (25–117) (Homo sapiens, UniProt Q00987); assay: Fluorescence polarization-based competition binding assay with Flu-p53; conditions: comparison with previously reported affinity of 1 (ref 38)

XQEG*FSDLWKLLS-NH2 (sidechain bridge or staple) [Peptide 1]
H/D rate constant ([1]; residue 4 (F^4)): 0.0003808 h⁻¹
H/D rate constant ([1]; residue 5 (S^5)): 0.0003808 h⁻¹
Stabilization, −ΔG (free energy of protection) ([1]; residue 6 (D^6 in 1 and 2, Dβ^6 in 3)): -0.58 kcal/mol
Stabilization, −ΔG (free energy of protection) ([1]; residue 7 (L^7 in 1 and 3, Lβ^7 in 2)): 0.52 kcal/mol
H/D rate constant ([1]; residue 8 (W^8)): 1.8e-06 h⁻¹
Stabilization, −ΔG (free energy of protection) ([1]; residue 8 (W^8)): 1.22 kcal/mol
H/D rate constant ([1]; residue 9 (K^9)): 5.1e-06 h⁻¹
Stabilization, −ΔG (free energy of protection) ([1]; residue 9 (K^9)): 1.23 kcal/mol
Stabilization, −ΔG (free energy of protection) ([1]; residue 10 (L^10 in 1 and 2, Lβ^10 in 3)): 1.40 kcal/mol
Stabilization, −ΔG (free energy of protection) ([1]; residue 11 (L^11 in 1 and 3, Lβ^11 in 2)): 1.04 kcal/mol
H/D rate constant ([1]; residue 12 (S^12)): 7.8e-06 h⁻¹
Stabilization, −ΔG (free energy of protection) ([1]; residue 12 (S^12)): 1.42 kcal/mol
CD signature (in words) [2]: CD signature typical of a canonical α-helix, with double minima near 206 and 222 nm and a maximum at 190 nm

CC(C)C[C@@H](CC(=O)N[C@@H](Cc1c[nH]c2ccccc12)C(=O)N[C@@H](CCCCN)C(=O)N[C@@H](CC(C)C)C(=O)N[C@H](CC(=O)N[C@@H](CO)C(N)=O)CC(C)C)NC(=O)[C@H](CC(=O)O)NC(=O)[C@H](CO)NC(=O)[C@H](Cc1ccccc1)NC(=O)CCN1C/C=C/CCC(=O)N[C@@H](CCC(N)=O)C(=O)N[C@@H](CCC(=O)O)C1=O [Peptide 2] (X1-FSD[β3hL]WKL[β3hL]S-NH2)
H/D rate constant ([1]; residue 4 (F^4)): 0.0003809 h⁻¹
H/D rate constant ([1]; residue 5 (S^5)): 0.0003809 h⁻¹
H/D rate constant ([1]; residue 8 (W^8)): 6.9e-06 h⁻¹
H/D rate constant ([1]; residue 9 (K^9)): 2.8e-06 h⁻¹
H/D rate constant ([1]; residue 12 (S^12)): 5.85e-05 h⁻¹
nucleation constant σ [3]: ≥ 1

CC(C)C[C@@H](CC(=O)N[C@@H](CC(C)C)C(=O)N[C@@H](CO)C(N)=O)NC(=O)[C@H](CCCCN)NC(=O)[C@H](Cc1c[nH]c2ccccc12)NC(=O)[C@H](CC(C)C)NC(=O)C[C@H](CC(=O)O)NC(=O)[C@H](CO)NC(=O)[C@H](Cc1ccccc1)NC(=O)CN1C/C=C/CCC(=O)N[C@@H](CCC(N)=O)C(=O)N[C@@H](CCC(=O)O)CC1=O [Peptide 3]
affinity for MDM2 compared with HBS α-helix 1 (in words) [4]: comparable to that previously reported for the optimized HBS p53 α-helix analog 1
H/D rate constant ([1]; residue 4 (F^4)): 1.33e-05 h⁻¹
H/D rate constant ([1]; residue 5 (S^5)): 1.07e-05 h⁻¹
H/D rate constant ([1]; residue 8 (W^8)): 1.4e-06 h⁻¹
H/D rate constant ([1]; residue 9 (K^9)): 8e-07 h⁻¹
H/D rate constant ([1]; residue 12 (S^12)): 2.6e-06 h⁻¹
nucleation constant σ [3]: ≥ 1

— article PMC3399945 (Journal of the American Chemical Society, 2012)
